Measured values as given in paper PMC12022103 (Scientific Reports, 2025).
≈ marks a conversion by molar mass, not a printed value. Non-standard residues stand in square brackets, D forms with d. Residues, ends and D or L forms follow the SMILES beside them. No end group written: not given here. AEEA = NCCOCCOCC(=O)O

Assays:
[1] = system: P. aeruginosa; test: Minimum inhibitory concentration (MIC), broth dilution; assay type: cell-based; settings: MH II broth, 5 × 10^5 CFU/mL, 18–24 h, 37 °C, OD600; triplicate, highest number reported; detection limit <0.5 and >128 µM
[2] = system: E. coli ATCC 25922; test: Minimum bactericidal concentration (MBC); assay type: cell-based, Escherichia coli; settings: 5 µL from MIC wells plated on MH II agar, 37 °C overnight, no visible colonies, triplicate, highest number reported, detection limit <0.5 and >128 µM
Experimental: (§1) The panel of bacterial reference strains used in this work for assessment of synthetic peptide activity originated from the American Type Culture Collection (ATCC) and was obtained from the Diagnostic section at the Department of Microbiology, Oslo University Hospital. The strains used were as follows: E. coli ATCC 25922, K. pneumoniae ATCC 13883, A. baumannii ATCC 17978, S. aureus ATCC 29213, and E. faecalis ATCC 29212.
(§2) Bacterial strains were plated on cation-adjusted Mueller-Hinton (MH II) agar plates and incubated at 37 °C overnight. The day after single colonies were picked and resuspended in sterile-filtered saline (0.9%). The OD of each bacterial suspension was adjusted to McFarland standard 0.5 using a spectrophotometer (UV-1800, Shimadzu), and the suspension further diluted 1:100 in MH II broth, corresponding to 10^6 colony forming units (CFU) per mL. The inoculum suspension was used for MIC, MBC, time-kill and protease stability assessments as described below. To ensure correct inoculum sizes, 10 µL of the bacterial suspensions were diluted 2000-fold in sterile-filtered saline (0.9%) and 100 µL plated onto MH II agar plates. After overnight incubation at 37 °C, colonies were counted. If found to be outside the acceptable number (20–80 colonies per plate corresponding to ∼10^6 CFU/mL), results from further analyses were discarded.
(§3) In order to assess the minimum bactericidal concentration (MBC) of peptides, 5 µL from each well of the 96-well plate used for MIC analysis was plated onto MH II agar and incubated at 37 °C overnight. […] The experiments were performed in triplicate. Two-fold variations in MIC values were often observed between replicates.

[3] = system: S. aureus ATCC 29213; test: Minimum inhibitory concentration (MIC), broth dilution; assay type: cell-based; settings: S. aureus ATCC 29213; MH II broth, 5 × 10^5 CFU/mL, 18–24 h, 37 °C, OD600; triplicate, highest number reported; detection limit <0.5 and >128 µM
Experimental: as §1, §2
(§4) The peptides were serially diluted (two-fold) directly in 96-well plates (Greiner, MICROPLATE, 96 WELL, PP, U-BOTTOM, NATURAL, 650261) containing MH II broth, corresponding to concentrations in the range 256–0.5 µM. An equal volume of bacterial suspension was added to each well, resulting in a final inoculum of 5 × 10^5 CFU/mL and final peptide concentrations of 128–0.25 µM. The 96-well plates were incubated for 18–24 h at 37 °C, after which the OD of each well was measured at 600 nm in a plate reader (Victor Nivo, Perkin-Elmer). The minimum inhibitory concentration (MIC) was estimated as the lowest concentration of peptide that produced OD600 measurements similar to the control wells containing no bacteria. The experiments were performed in triplicate. Two-fold variations in MIC values were often observed between replicates.

[4] = system: A. baumannii ATCC 17978; test: as above; assay type: cell-based; settings: MH II broth, 5 × 10^5 CFU/mL, 18–24 h, 37 °C, OD600, triplicate, highest number reported, detection limit <0.5 and >128 µM
Experimental: as §1, §2, §4

[5] = system: E. faecalis ATCC 29212; test: as above; assay type: cell-based; settings: E. faecalis ATCC 29212; MH II broth, 5 × 10^5 CFU/mL, 18–24 h, 37 °C, OD600; triplicate, highest number reported; detection limit <0.5 and >128 µM
Experimental: as §1, §2, §4

[6] = system: K. pneumoniae ATCC 13883; test: as above; assay type: cell-based; settings: K. pneumoniae ATCC 13883; MH II broth, 5 × 10^5 CFU/mL, 18–24 h, 37 °C, OD600; triplicate, highest number reported; detection limit <0.5 and >128 µM
Experimental: as §1, §2, §4

[7] = system: E. coli ATCC 25922; test: as above; assay type: cell-based, Escherichia coli; settings: E. coli ATCC 25922; two-fold dilution in MH II broth, 5 × 10^5 CFU/mL, 18–24 h, 37 °C, OD600; triplicate, highest number reported; detection limit <0.5 and >128 µM
Experimental: as §1, §2, §4

[8] = system: P. aeruginosa; test: Minimum bactericidal concentration (MBC); assay type: cell-based; settings: 5 µL from MIC wells plated on MH II agar, 37 °C overnight, no visible colonies; triplicate, highest number reported
[9] = system: S. aureus ATCC 29213; test: Minimum bactericidal concentration (MBC); assay type: cell-based; settings: 5 µL from MIC wells plated on MH II agar, 37 °C overnight, no visible colonies, triplicate, highest number reported
Experimental: as §1, §2, §3

[10] = system: A. baumannii ATCC 17978; test: Minimum bactericidal concentration (MBC); assay type: cell-based; settings: 5 µL from MIC wells plated on MH II agar, 37 °C overnight, no visible colonies, triplicate, highest number reported
Experimental: as §1, §2, §3

[11] = system: E. faecalis ATCC 29212; test: Minimum bactericidal concentration (MBC); assay type: cell-based; settings: 5 µL from MIC wells plated on MH II agar, 37 °C overnight, no visible colonies, triplicate, highest number reported
Experimental: as §1, §2, §3

[12] = system: K. pneumoniae ATCC 13883; test: Minimum bactericidal concentration (MBC); assay type: cell-based; settings: 5 µL from MIC wells plated on MH II agar, 37 °C overnight, no visible colonies, triplicate, highest number reported
Experimental: as §1, §2, §3

Compound	MIC, P. aeruginosa [1] [µM]	MBC, E. coli [2] [µM]	MIC, S. aureus [3] [µM]	MIC, A. baumannii [4] [µM]	MIC, E. faecalis [5] [µM]	MIC, K. pneumoniae [6] [µM]	MIC, E. coli [7] [µM]	MBC, P. aeruginosa [8] [µM]	MBC, S. aureus [9] [µM]	MBC, A. baumannii [10] [µM]	MBC, E. faecalis [11] [µM]	MBC, K. pneumoniae [12] [µM]
KKKKIAVLQLILLFL-NH2 [2b-N12]	> 128	> 128	> 128	> 128	> 128	> 128	> 128	> 128	> 128	> 128	> 128	> 128
VKKKKKAVLQLILKFLRRRR-NH2 [3b-N10]	4	16	8	8	4	16	16	4	8	8	4	16
CC[C@H](C)[C@H](NC(=O)[C@H](CC(C)C)NC(=O)[C@H](CCC(N)=O)NC(=O)[C@H](CC(C)C)NC(=O)[C@@H](NC(=O)[C@H](C)NC(=O)COCCOCCNC(=O)[C@H](CCCCN)NC(=O)[C@H](CCCCN)NC(=O)[C@H](CCCCN)NC(=O)[C@H](CCCCN)NC(=O)[C@H](CCCCN)NC(=O)[C@@H](N)C(C)C)C(C)C)C(=O)N[C@@H](CC(C)C)C(=O)N[C@@H](CCCCN)C(=O)N[C@@H](Cc1ccccc1)C(=O)N[C@@H](CC(C)C)C(N)=O [3c-N10] (H-VKKKKK[AEEA]AVLQLILKFL-NH2)	64 (≈ 131 µg/mL)	16 (≈ 32.7 µg/mL)	32 (≈ 65.3 µg/mL)	16 (≈ 32.7 µg/mL)	16 (≈ 32.7 µg/mL)	16 (≈ 32.7 µg/mL)	16 (≈ 32.7 µg/mL)	32 (≈ 65.3 µg/mL)	32 (≈ 65.3 µg/mL)	16 (≈ 32.7 µg/mL)	16 (≈ 32.7 µg/mL)	16 (≈ 32.7 µg/mL)
RRRRRRFVLRLILRLL-NH2 [2j-N12]	64	128	64	64	32	64	64	64	64	64	32	64
KKKKIIAVLQLILLFL-NH2 [2c-N12]	> 128	> 128	> 128	> 128	> 128	> 128	> 128	> 128	> 128	> 128	> 128	> 128
KKKKAVLQLILLFL-NH2 [2a-N12]	> 128	> 128	> 128	> 128	> 128	> 128	> 128	> 128	> 128	> 128	> 128	> 128
